Test results from PMC4786809, “Determination of cyanidin 3-glucoside in rat brain, liver and kidneys by UPLC/MS-MS and its application to a short-term pharmacokinetic study” (Scientific Reports, 2016).
Values joined by “and” are separate entries in the source; they are usually repeats but may differ in a detail not shown here. Equal values may be shown once.

Experiment: Brain concentrations and tissue pharmacokinetics after intravenous C3G
Assay type: in vivo, Wistar rats
From the text: Twenty-two male Wistar rats (Rattus Norvegicus, Harlan Italy S.r.l.), of same age (15 weeks), 293–390 g of body weight, were used. The rats were randomly divided into 5 groups, according to the time that elapsed after intravenous administration of the test compound, and one control group. Each time point was represented by four biological replicates. All animals were allowed to acclimate to the animal facility of the University of Trieste for at least 2 week before studies were initiated. The experimental design was vetted and approved by the bioethical committee of the University of Trieste (internal code 140PAS14), according to the provisions of the European Community Council Directive 2010/63/EU[39]. The methods were carried out in accordance with the approved guidelines. The animals (n = 22) were maintained in cages in a room at 23 ± 2 °C, 50–60% humidity with a 12-hour light-dark cycle. The night before the experiment, food was withdrawn from the cages but water was given ad libitum. On the day of the experiment, the rats were anesthetized with intra-peritoneal administration of tiletamine/zolazepam (1:1, 25 mg/kg body weight) and xylazine (10 mg/kg body weight). During anaesthesia (10 min in all cases), the heart and ventilation rate were monitored. The rats were placed on their backs, with the ventral side up and with the legs spread separately on a thermo-isolated support. The penis was extruded by sliding the prepuce downwards. The dorsal penis vein was then seen along both sides of the penis and exactly 10 min after anaesthesia 0.2 mL PBS without (control group) or with (treated group) 668 nmol cyanidin 3-glucoside (C3G) in PBS was injected using a 24-G hypodermic needle. Then the injection site was pressed with a swab for a few seconds, and the glans was encouraged to retract to prevent further bleeding. One min before sacrificing the rats, sodium heparin (0.1 ml, 500 IU) was injected again into the dorsal penis vein, exposed in the same way. […] Blood draining and excision of the organs were carried out according to the literature. In detail, blood was collected from the neck of rats hold upside down, immediately after their decapitation, which happened at the time points sharp. Exsanguination took 5 seconds; laparotomy and excision of the liver and the kidneys took 5 more seconds. The post-decapitation procedures were standardised. Urine was collected through the urinary bladder with a syringe before decapitation. Kidneys, liver and brain were washed with mQ water, immediately frozen in liquid nitrogen and stored at −80 °C.
Immediately after sampling, 5 mL of blood were transferred into ice-cold (−20 °C), deoxygenated aqueous 95% methanol in a ratio 1:9 (v/v). The urine was weighted and transferred into ice-cold, deoxygenated aqueous 95% methanol at a ratio of 1:9 (w/v). Frozen kidneys, liver and brain were grounded under cryogenic conditions (−196 °C) to 5 μm particles in a CryoMill (Retsch, Germany), using a single 25 mm i. d. steel ball (30 seconds, 25/sec frequency). The pulverized tissue was rapidly transferred (without thawing) into ice-cold, deoxygenated aqueous 95% methanol at a ratio of 1:9 (w/v). Cinnamic acid-d5, as internal standard, was dissolved in the aqueous methanol at concentration of 0.1 mg/L for the monitoring of the extraction protocol in biofluids and tissues.
All samples were extracted with an orbital shaker for 10 min at room temperature. The methanol extracts were then centrifuged for 5 min at 3600 rpm at 4 °C, decanted under a stream of nitrogen in 50 mL dark glass vessels and stored at −80 °C. Clean-up of extracted samples in methanol was performed by solid phase extraction (SPE), as previously described. Briefly, 5 mL of extracted samples were evaporated on a rotary evaporator and reconstituted in 10 mL of acidified water. Anthocyanins were extracted by solid-phase adsorption onto a hydrophobic matrix (Sep-Pak C18, 0.35 g, Waters, Milford, MA). […]

For `OC[C@H]1O[C@@H](Oc2cc3c(O)cc(O)cc3[o+]c2-c2ccc(O)c(O)c2)[C@H](O)[C@@H](O)[C@@H]1O` [C3G, Cyanidin-3-O-β-glucoside], the “Mean concentration in brain” value (0.25 min after i.v. 668 nmol C3G, mean ± SEM n=4, corrected for residual blood) was 40.46 ± 9.67 pmol/g, the “Mean concentration in brain” value (2 min after i.v. 668 nmol C3G) was 7.48 ± 0.79 pmol/g and the “Mean concentration in brain” value (5 min after i.v. 668 nmol C3G) was 7.05 ± 0.55 pmol/g. The “Mean concentration in brain” value (15 min after i.v. 668 nmol C3G) was 2.18 ± 0.58 pmol/g, the “Mean concentration in brain” value (20 min after i.v. 668 nmol C3G) was 2.21 ± 0.44 pmol/g and the “MTTB (Mean Transit Time in the brain)” value (brain) was 0.43 min. The AUC0-t (brain, i.v. 668 nmol C3G) was 119.9 pmol·min/g and 119.89 pmol·min/g, the half-life (male, Wistar, rat, brain, iv, 668 nmol) was 8.8 min and the concentration at 15 sec (male, Wistar, rat, brain, iv, 668 nmol, 15 sec after i.v., read-out: Corresponding brain concentration assuming free diffusion in a water compartment) was about 50 nM.
